In brackets after ≈: the same amount, converted by molar mass. Several values for one entry are separate records, joined by “and”; a condition that tells them apart may be missing. Equal values may be shown once. Activity calls are given as the source filed them. No cut-off for these calls is given here. *1 amine or outer side, *2 acyl side, *3 side chain or, on linkers, in order; H or OH if unused. Where a SMILES comes first, the peptide text is derived from it. Bridges are numbered along the chain shown (N, C = ends). [ ]: non-standard residue; d: D form. The star is where a group is joined. pTerphenylCO(4''-OnC5H11) = CCCCCOc1ccc(-c2ccc(-c3ccc(C(=O)*)cc3)cc2)cc1; Orn(4R-OH,5R-OH) = O=C([C@H](C[C@@H](O)[C@@H](O)N[*:3])N[*:1])[*:2]; hTyr(3S-OH,4S-OH) = N[C@H](C(=O)O)[C@H](O)[C@@H](O)c1ccc(O)cc1; Pro(3S-OH,4S-Me) = C[C@H]1CN[C@H](C(=O)O)[C@H]1O; Hyp = O=C(O)[C@@H]1C[C@@H](O)CN1
Experiments:
[1] = system: Nakaseomyces glabratus; assay: Antifungal activity against Candida glabrata 05-761 isolate assessed as decrease in fungal turbidity by microdilution method; assay type: functional
[2] = system: Nakaseomyces glabratus; assay: Antifungal activity against Candida glabrata 05-761 isolate infected ICR mouse kidney assessed as reduction of tissue fungal burden at 5 mg/kg, ip; assay type: functional, organism-based; parameters: dose 5 mg/kg
[3] = system: Nakaseomyces glabratus; assay: Antifungal activity against Candida glabrata 05-761 isolate in presence of 50% human serum after 24 hrs by broth microdilution method; assay type: functional
[4] = system: Nakaseomyces glabratus; assay: Antifungal activity against Candida glabrata 05-761 isolate in presence of 5% mouse serum after 24 hrs by broth microdilution method; assay type: functional
[5] = system: Nakaseomyces glabratus; assay: Antifungal activity against Candida glabrata 05-761 isolate assessed as decrease in fungal turbidity in presence of 5% mouse serum by microdilution method; assay type: functional
[6] = system: Nakaseomyces glabratus; assay: Antifungal activity against Candida glabrata 05-62 isolate after 2 hrs in presence of 50% mouse serum by XTT reduction assay; assay type: functional
[7] = system: Nakaseomyces glabratus; assay: Antifungal activity against Candida glabrata 05-62 isolate in presence of 5% mouse serum after 24 hrs by broth microdilution method; assay type: functional
[8] = system: Nakaseomyces glabratus; assay: Antifungal activity against Candida glabrata 05-62 isolate after 2 hrs in presence of 5% mouse serum by XTT reduction assay; assay type: functional
[9] = system: Nakaseomyces glabratus; assay: Antifungal activity against Candida glabrata 05-62 isolate assessed as decrease in fungal turbidity in presence of 5% human serum by microdilution method; assay type: functional
[10] = system: Nakaseomyces glabratus; assay: Antifungal activity against Candida glabrata 05-62 isolate assessed as decrease in fungal turbidity in presence of 50% human serum by microdilution method; assay type: functional
[11] = system: Nakaseomyces glabratus; assay: Antifungal activity against Candida glabrata 05-761 isolate assessed as decrease in fungal turbidity in presence of 50% mouse serum by microdilution method; assay type: functional
[12] = system: Nakaseomyces glabratus; assay: Antifungal activity against Candida glabrata 05-761 isolate after 22 hrs by XTT assay; assay type: functional, organism-based
[13] = system: Nakaseomyces glabratus; assay: Antifungal activity against Candida glabrata 05-761 isolate infected ICR mouse kidney assessed as reduction of tissue fungal burden at 1 mg/kg, ip; assay type: functional, organism-based; parameters: dose 1 mg/kg
[14] = system: Nakaseomyces glabratus; assay: Antifungal activity against Candida glabrata 05-761 isolate after 24 hrs by broth microdilution method; assay type: functional
[15] = system: Nakaseomyces glabratus; assay: Antifungal activity against Candida glabrata 05-761 isolate in presence of 50% mouse serum after 24 hrs by broth microdilution method; assay type: functional
[16] = system: Nakaseomyces glabratus; assay: Antifungal activity against Candida glabrata 05-62 isolate in presence of 5% human serum after 24 hrs by broth microdilution method; assay type: functional, organism-based
[17] = system: Nakaseomyces glabratus; assay: Antifungal activity against Candida glabrata 05-761 isolate in presence of 5% human serum after 24 hrs by broth microdilution method; assay type: functional, organism-based
[18] = system: Nakaseomyces glabratus; assay: Antifungal activity against Candida glabrata 05-62 isolate in presence of 50% mouse serum after 24 hrs by broth microdilution method; assay type: functional
[19] = system: Nakaseomyces glabratus; assay: Antifungal activity against Candida glabrata 05-761 isolate infected ICR mouse kidney assessed as reduction of tissue fungal burden at 0.5 mg/kg, ip; assay type: functional, organism-based; parameters: dose 0.5 mg/kg
[20] = system: Nakaseomyces glabratus; assay: Antifungal activity against Candida glabrata 05-761 isolate assessed as decrease in fungal turbidity in presence of 50% human serum by microdilution method; assay type: functional
[21] = system: Nakaseomyces glabratus; assay: Antifungal activity against Candida glabrata 05-62 isolate after 22 hrs by XTT assay; assay type: functional, organism-based
[22] = system: Nakaseomyces glabratus; assay: Antifungal activity against Candida glabrata 05-62 isolate in presence of 50% human serum after 24 hrs by broth microdilution method; assay type: functional
[23] = system: Nakaseomyces glabratus; assay: Antifungal activity against Candida glabrata 05-62 isolate in presence of 5% human serum after 22 hrs by XTT assay; assay type: functional, organism-based
[24] = system: Nakaseomyces glabratus; assay: Antifungal activity against Candida glabrata 05-62 isolate after 24 hrs by broth microdilution method; assay type: functional
[25] = system: Nakaseomyces glabratus; assay: Antifungal activity against Candida glabrata 05-761 isolate assessed as decrease in fungal turbidity in presence of 5% human serum by microdilution method; assay type: functional
[26] = Nakaseomyces glabratus, 24 h, read-out: MIC

CCCCCOc1ccc(-c2ccc(-c3ccc(C(=O)N[C@H]4C[C@@H](O)[C@@H](O)NC(=O)[C@@H]5[C@@H](O)[C@@H](C)CN5C(=O)[C@H]([C@@H](C)O)NC(=O)[C@H]([C@H](O)[C@@H](O)c5ccc(O)cc5)NC(=O)[C@@H]5C[C@@H](O)CN5C(=O)[C@H]([C@@H](C)O)NC4=O)cc3)cc2)cc1 [ANIDULAFUNGIN] ({pTerphenylCO(4''-OnC5H11)}-[Orn(4R-OH,5R-OH)]T[Hyp][hTyr(3S-OH,4S-OH)]T[Pro(3S-OH,4S-Me)]; lactam 1-C)
MIC [1]: 0.06 µg/mL (≈ 0.0526 µM) | Activity [2]: inactive | MIC [3]: 2 µg/mL | MIC [4]: 0.5 µg/mL | MIC [5]: 0.5 µg/mL | MIC [6]: 8 µg/mL | MIC [7]: 4 µg/mL | MIC [8]: 4 µg/mL | MIC [9]: 2 µg/mL | MIC [10]: 8 µg/mL | MIC [11]: 1 µg/mL | IC50 [12]: 0.05 µg/mL (≈ 0.0438 µM) | IC90 [12]: 0.16 µg/mL (≈ 0.14 µM) | Activity [13]: Active | MIC [14]: 0.125 µg/mL and 0.06 µg/mL | MIC [15]: 1 µg/mL | IC50 [16]: 1.7 µg/mL | IC90 [16]: 3.1 µg/mL | MIC [16]: 2 µg/mL | IC50 [17]: 0.31 µg/mL | IC90 [17]: 0.39 µg/mL | MIC [17]: 0.5 µg/mL | MIC [18]: 8 µg/mL | Activity [19]: Active | MIC [20]: 1 µg/mL | IC50 [21]: 0.31 µg/mL (≈ 0.272 µM) | IC90 [21]: 0.41 µg/mL (≈ 0.36 µM) | MIC [22]: 16 µg/mL | IC50 [23]: 1.7 µg/mL | IC90 [23]: 3.1 µg/mL | MIC [24]: 0.25 µg/mL (≈ 0.219 µM) | MIC [24, 26]: 0.5 µg/mL (≈ 0.438 µM) | MIC [25]: 0.5 µg/mL

CC[C@H](C)C[C@H](C)CCCCCCCCC(=O)N[C@H]1C[C@@H](O)[C@@H](NCCN)NC(=O)[C@@H]2[C@@H](O)CCN2C(=O)[C@H]([C@H](O)CCN)NC(=O)[C@H]([C@H](O)[C@@H](O)c2ccc(O)cc2)NC(=O)[C@@H]2C[C@@H](O)CN2C(=O)[C@H]([C@@H](C)O)NC1=O [CASPOFUNGIN]
MIC [1]: 1 µg/mL (≈ 0.915 µM) | Activity [2]: inactive | MIC [3]: 1 µg/mL | MIC [4]: 1 µg/mL | MIC [5]: 1 µg/mL | MIC [6]: 8 µg/mL | MIC [7]: > 32 µg/mL | MIC [8]: 4 µg/mL | MIC [9]: 2 µg/mL | MIC [10]: 4 µg/mL | MIC [11]: 2 µg/mL | IC50 [12]: 1.1 µg/mL (≈ 1.01 µM) | IC90 [12]: 1.6 µg/mL (≈ 1.46 µM) | Activity [13]: Active | MIC [14, 26]: 2 µg/mL (≈ 1.83 µM) | MIC [15]: 2 µg/mL | IC50 [16]: 1.4 µg/mL | IC90 [16]: > 32 µg/mL | MIC [16]: > 32 µg/mL | IC50 [17]: 0.29 µg/mL | IC90 [17]: 0.33 µg/mL | MIC [17]: 0.5 µg/mL | MIC [18]: > 32 µg/mL | Activity [19]: Active | MIC [20]: 1 µg/mL | IC50 [21]: 1.2 µg/mL (≈ 1.1 µM) | IC90 [21]: > 32 µg/mL | MIC [22]: > 32 µg/mL | IC50 [23]: 1.4 µg/mL | IC90 [23]: > 32 µg/mL | MIC [24, 26]: > 32 µg/mL | MIC [25]: 0.25 µg/mL
